Data from patent US10174013B2, “Benzimidazole derivatives as kinase inhibitors” (SELVITA S.A., priority 2012, dated 2019).

Tests used:
[1] = biological target: Pim-1 (Homo sapiens (Human), UniProt P11309); assay: ADP-Glo Kinase Assay, Pim-1; format: biochemical; settings: 1 μM compound
Procedure, shortened: (§1)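 Compounds were diluted in assay buffer to 1000 nM and incubated with kinase, substrate and ATP at apparent Km. Remaining ATP was depleted, ADP converted to ATP and detected by luciferase; percent inhibition came from normalized luminescence.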

[2] = biological target: Pim-2 (Homo sapiens (Human), UniProt Q9P1W9); assay: ADP-Glo Kinase Assay, Pim-2; format: biochemical; settings: 1 μM compound
Chain of Pim-2 (Q9P1W9 whole entry): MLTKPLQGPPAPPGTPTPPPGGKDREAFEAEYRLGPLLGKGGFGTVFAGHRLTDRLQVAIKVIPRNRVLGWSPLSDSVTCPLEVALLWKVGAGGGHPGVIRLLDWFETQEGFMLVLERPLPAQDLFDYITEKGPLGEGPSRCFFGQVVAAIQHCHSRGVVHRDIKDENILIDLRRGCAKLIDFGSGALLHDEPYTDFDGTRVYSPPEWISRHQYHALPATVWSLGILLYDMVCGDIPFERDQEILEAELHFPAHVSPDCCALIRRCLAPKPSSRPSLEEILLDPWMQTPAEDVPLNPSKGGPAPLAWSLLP
Procedure, shortened: as §1

[3] = biological target: Pim-3 (Homo sapiens (Human), UniProt Q86V86); assay: ADP-Glo Kinase Assay, Pim-3; format: biochemical; settings: 1 μM compound
Procedure, shortened: as §1

[4] = biological target: FLT3wt (Homo sapiens (Human), UniProt P36888); assay: ADP-Glo Kinase Assay, Flt3 wt; format: biochemical; settings: 1 μM compound
Chain of FLT3wt (P36888 27-993): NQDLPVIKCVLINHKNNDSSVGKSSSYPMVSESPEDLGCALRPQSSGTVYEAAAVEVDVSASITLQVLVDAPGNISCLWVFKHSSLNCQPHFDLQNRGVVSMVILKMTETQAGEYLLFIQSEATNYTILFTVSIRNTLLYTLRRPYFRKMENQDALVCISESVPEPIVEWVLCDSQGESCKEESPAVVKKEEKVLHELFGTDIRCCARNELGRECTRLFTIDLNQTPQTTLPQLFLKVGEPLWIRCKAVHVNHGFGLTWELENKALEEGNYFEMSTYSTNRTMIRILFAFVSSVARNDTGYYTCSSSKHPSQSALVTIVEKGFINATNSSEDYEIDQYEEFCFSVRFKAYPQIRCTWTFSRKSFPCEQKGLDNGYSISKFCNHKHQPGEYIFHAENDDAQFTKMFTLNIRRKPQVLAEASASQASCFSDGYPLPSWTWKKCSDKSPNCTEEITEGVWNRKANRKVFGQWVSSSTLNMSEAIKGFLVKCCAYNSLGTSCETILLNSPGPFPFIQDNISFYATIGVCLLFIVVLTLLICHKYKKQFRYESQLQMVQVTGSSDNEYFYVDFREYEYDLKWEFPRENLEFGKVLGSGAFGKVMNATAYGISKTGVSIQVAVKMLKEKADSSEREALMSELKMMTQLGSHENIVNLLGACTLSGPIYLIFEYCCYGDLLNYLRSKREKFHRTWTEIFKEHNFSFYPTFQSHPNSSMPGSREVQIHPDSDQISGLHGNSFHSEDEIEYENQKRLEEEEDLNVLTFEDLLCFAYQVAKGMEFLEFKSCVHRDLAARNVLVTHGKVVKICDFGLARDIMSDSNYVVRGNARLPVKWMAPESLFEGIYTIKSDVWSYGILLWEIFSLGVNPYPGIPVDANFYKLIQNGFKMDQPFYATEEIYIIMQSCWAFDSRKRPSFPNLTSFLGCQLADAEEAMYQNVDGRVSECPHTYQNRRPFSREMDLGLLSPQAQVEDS
Procedure, shortened: as §1

[5] = test system: FLT3-ITD; assay: ADP-Glo Kinase Assay, Flt3 ITD; format: biochemical, Human; settings: 1 μM compound
Method: Compounds of the present invention were tested for their inhibitory activity against Pim-1, Pim-2, Pim-3, Flt3 wt, Flt3 ITD, CDK2/E and DYRK1. The testing of the compounds was carried out using the ADP-Glo™ Kinase Assay from Promega Corporation (Madison, Wis., USA).
The ADP-Glo™ Kinase Assay is a luminescent ADP detection assay to measure kinase activity by quantifying the amount of ADP produced during a kinase reaction. The kinase assay is performed in kinase assay buffer (5 mM MOPS, pH 7.5, 5 mM MgCl2, 0.4 mM EDTA, 1.5 mM DTT). Test samples initially dissolved in DMSO at 10 mM were diluted with the assay buffer to 1000 nM. A 30 μL volume/well of a mixture of substrates containing ATP (final ATP concentration in each kinase assay was equal to its apparent ATP Km).
The assay was performed in two steps: first, after the kinase reaction, an equal volume of ADP-Glo™ Reagent was added to terminate the kinase reaction and deplete the remaining ATP. Second, the Kinase Detection Reagent was added to simultaneously convert ADP to ATP and allowed the newly synthesized ATP to be measured using a luciferase/luciferin reaction. The luminescent signal generated was proportional to the ADP concentration produced and was correlated with kinase activity. A microplate spectrophotometer (Synergy 2 multi-mode microplate reader [BioTek]) was used for detecting the luminescence. The data was normalized and the percent of inhibition was obtained according to the following equation: […]

[6] = biological target: CDK2/E (Homo sapiens (Human), UniProt P24941); assay: ADP-Glo Kinase Assay, CDK2/E; format: biochemical; settings: 1 μM compound
Procedure, shortened: as §1

[7] = biological target: DYRK1 (Homo sapiens (Human), UniProt Q13627); assay: ADP-Glo Kinase Assay, DYRK1; format: biochemical; settings: 1 μM compound
Procedure, shortened: as §1

[8] = test system: MV4-11 cells; assay: Growth inhibition, MTS assay, MV4-11; format: cell-based, Human; settings: 72 hours, MTS cell viability; read-out: MV4-11 ED50
[9] = test system: HEL92 cells; assay: Growth inhibition, MTS assay, HEL92; format: cell-based, Human; settings: 72 hours, MTS cell viability; read-out: HEL92 ED50
[10] = test system: HepG2 cells; assay: Growth inhibition, MTS assay, HepG2; format: cell-based, Human; settings: 72 hours, MTS cell viability; read-out: HepG2 ED50
[11] = test system: Jeko-1 cells; assay: Growth inhibition, MTS assay, Jeko-1; format: cell-based, Human; settings: 72 hours, MTS cell viability; read-out: Jeko-1 ED50
[12] = test system: SW-480 cells; assay: Growth inhibition, MTS assay, SW-480; format: cell-based, Human; settings: 72 hours, MTS cell viability; read-out: SW-480 ED50
[13] = test system: MOLM16 cells; assay: Growth inhibition, MTS assay, MOLM16; format: cell-based, Human; settings: 72 hours, MTS cell viability; read-out: MOLM 16 ED50
[14] = test system: MOLM13 cells; assay: Growth inhibition, MTS assay, MOLM13; format: cell-based, Human; settings: 72 hours, MTS cell viability; read-out: MOLM 13 ED50
Description: (§2) The following cell lines, were obtained and used in tests as outlined below: • Human myelomonocytic, biphenotypic leukemia MV4-11 cells (harboring a Flt3-ITD mutation); • Human Acute Myeloid Leukemia MOLM16 cells; • Human Acute Myeloid Leukemia MOLM13 cells (harboring a Flt3-ITD mutation); • Human Myeloid Leukemia KG-1 cells; • Human erythroleukemia HEL92 cells; • Human mantle cell lymphoma Jeko-1 cells; • Human hepatocellular carcinoma HepG2 cells; and • Human colon adenocarcinoma SW-480 cells.
(§3) The assays were carried out according to the following protocol, which is described as an example for the MV4-11 cells:
(§4) Ten thousand MV4-11 cells were inoculated into each well of a 96-well microplate (manufactured by Corning Corp.) using Iscove's MDM medium (culture medium) containing 10% fetal calf serum (FCS). The same day, a dimethyl sulfoxide (DMSO) solution of each test compound prepared in a concentration of 10 mmol/L was further diluted with DMSO to the desired concentrations (0.1, 0.5, 1, 2.5, 5 and 10 micromol/L), and the diluted solution was added to each well. The individual wells were further cultured in 5% carbon dioxide at 37° C. for 72 hours. […] Briefly, 10 μl MTS (3-(4,5-Dimethyl-2-thiazolyl)-5-(carboxymethoxyphenyl)-2-(4-sulfophenyl)-2H-tetrazolium was added to each well, and culturing was performed in 5% carbon dioxide at 37° C. for 2 hours. After this incubation and using a microplate spectrophotometer (Synergy 2 multi-mode microplate reader (BioTek)), the absorbance of each well was measured at 490 nm. The value for cells not incubated with a test compound was designated as 100%. By comparing these values with the absorbance difference obtained at the well in which each test compound was added, the cell viability (% viability) after treatment with the test compound was calculated.

[15] = test system: KG-1 cells; assay: Growth inhibition, MTS assay, KG-1; format: cell-based, Human; settings: 72 hours, MTS cell viability
Description: as §2, §3, §4

[16] = test system: MV4-11 xenograft; assay: MV4-11 xenograft in immunocompromised mice; format: in vivo; settings: MV4-11 xenograft, oral
Description: Several compounds of the present invention have been studied in a xenograft in mice, an in vivo tumor transplantation model used to investigate the factors involved in malignant transformation, invasion and metastasis, as well as to examine response to therapy. For the purpose of acceptance of donor leukemic cells (MV4-11 or MOLM16 cells), immunocompromised mice were used, namely particularly severely compromised immunodeficient mice (NOD/scid, SCID/beige). When tumors developed size of approx. 50-200 mm^3, the compounds as indicated below in Tables 3 and 3a were administered orally every day for 2-3 weeks, in once a day (QD) or twice a day (BID) schedule. During the course of the experiment, the mice were monitored and the following two parameters were measured: the tumor growth inhibition (TGI) factor as a measure of therapeutic efficacy and the body weight change (ΔBW) factor as a measure of possible compound toxicity. The results are depicted in Tables 3 and 3a.
Next, compound 26A was evaluated in a xenograft study of acute myeloid leukemia (MV-4-11), alone or in a combinational treatment with Cytarabine in vivo (Table 3b; FIG. 6). Compound 26A was tested in two doses (50 and 25 mg/kg) and administered twice a day (BID); Cytarabine was administered at dose of 50 mg/kg three times in a week (TIW). During 15 days of compound administration dose-dependent anti-cancer activity of compound 26A (administered alone) was shown. Tumor growth inhibition reached −82% and −77%, respectively.

Chain of Pim-1 (P11309 whole entry): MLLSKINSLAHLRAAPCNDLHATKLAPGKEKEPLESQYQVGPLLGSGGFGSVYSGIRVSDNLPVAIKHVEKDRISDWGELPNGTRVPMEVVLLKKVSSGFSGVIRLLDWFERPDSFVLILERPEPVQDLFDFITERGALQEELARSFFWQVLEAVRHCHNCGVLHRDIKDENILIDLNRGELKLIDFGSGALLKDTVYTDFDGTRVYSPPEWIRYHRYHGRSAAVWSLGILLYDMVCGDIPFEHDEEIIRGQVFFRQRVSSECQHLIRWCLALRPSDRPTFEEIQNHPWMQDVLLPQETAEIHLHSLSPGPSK

With CCn1c(N2CCC[C@H](N)C2)nc2c([N+](=O)[O-])c(Br)c(Br)cc21 [Example 1AH] the “Pim-1 % INH (1 μM)” value [1] was over 95%, the “Pim-2 % INH (1 μM)” value [2] was 55% and the “Pim-3 % INH (1 μM)” value [3] was over 95%. The “Flt3wt % INH (1 μM)” value [4] was 9%, the “Flt3ITD % INH (1 μM)” value [5] was 29% and the “CDK2/E % INH (1 μM)” value [6] was 6%. For the same compound, the “DYRK1A % INH (1 μM)” value [7] was 39%, the IC50 [8] was 600 nM and the IC50 [9] was 6000 nM. The IC50 [10] was 2200 nM, the IC50 [11] was 1900 nM and the IC50 [12] was 7000 nM. For the same compound, the IC50 [13] was 200 nM, the IC50 [14] was 1800 nM and the “KG-1 ED50” value [15] was 650 nM. The “TGI (tumor growth inhibition)” value ([16]; 150 mg/Kg QD) was 74%, the “ΔBW (body weight change)” value ([16]; 150 mg/Kg QD) was 0.6% and the “TGI (tumor growth inhibition)” value ([16]; doses as in Table 3) was “more than 70%”.
